Experiments:
P388 leukemia = assay: In vivo tumor test, i.p. implanted P388 leukemia; set-up: species or system mice; details: for Optimum Dose: P388, 10⁶ ascites cells i.p., single i.p. injection of drug, day 1; for Maximum Effect T/C: P388, T/C = median survival time (treated/control) X 100, single i.p. injection day 1, 30 days
Protocol: (§1) The in vivo tumor tests were performed utilizing methods described in detail in a previous publication (8). The lymphatic leukemias P-388 and L-1210 were used for initial testing of mitomycin and daunomycin derivatives respectively. Selected compounds were tested against subcutaneouly implanted B16 melanoma with treatment administered intravenously. Experimental parameters are shown in the footnotes of the accompanying tables.
(§2) Three murine tumor models were used to evaluate the in-vivo activities of the drugs.

B16 melanoma = assay: In vivo tumor test, subcutaneously implanted B16 melanoma; set-up: species or system mice; details: for Optimum Dose / Maximum Effect T/C: B16 melanoma s.c., three i.v. injections, days 1, 5 and 9; for Maximum Effect T/C: 60 days; for antitumor activity: subcutaneously implanted B16 melanoma, i.v. days 1, 5 and 9
Protocol: as §1
Some of the MMC and MMA derivatives were tested for activity against subcutaneously implanted B16 melanoma. In these experiments, the drugs were administered i.v. on days 1,5 and 9 after implantation of the tumor. The cleavable MMC prodrugs, 20 and 21, were about as active as MMC. […] The cleavable prodrugs, 24 - 27, were as active as MMA, with 24 showing slightly greater activity.

L1210 leukemia = assay: In vivo tumor test, i.p. implanted L1210 leukemia; set-up: species or system mice; details: for Optimum Dose: L1210, 10⁶ ascites cells i.p., single i.p. injection of drug, day 1; for Maximum Effect T/C: L1210, T/C = median survival time (treated/control) X 100, single i.p. injection day 1, 30 days; for in-vivo activity: L1210, optimal i.p. dose
Protocol: as §1, §2

[1] = Model study: stability and dithiothreitol-induced fragmentation of model benzyl carbamate disulfide; type: physicochemical
From the text: In order to establish that benzyl carbamates with suitably positioned disulfide substituents would undergo fragmentation of the carbamate upon disulfide reduction, model studies were undertaken using p-nitroaniline as a leaving group. The synthesis of the model benzyl carbamate 12 is depicted in Figure 1.
The course of reaction was monitored by uv/vis spectroscopy, in which 14 (λ max 371 nm) was easily distinguished from the starting material 12 (λ max 313nm). […] It was also observed that the release of 14 was slightly faster at 37°C than at room temperature.

With `CO[C@@]12[C@H](COC(N)=O)C3=C(C(=O)C(C)=C(N)C3=O)N1C[C@H]1[C@@H]2N1C(=O)OCc1ccccc1SSc1ccccn1` [Compound 18, MMC Benzyl Carbamate Disulfide] the “Optimum Dose” value (P388 leukemia) was 51.2 mg/kg and the “Maximum Effect T/C” value (P388 leukemia) was 195.
For `CO[C@@]12[C@H](COC(N)=O)C3=C(C(=O)C(C)=C(N)C3=O)N1C[C@H]1[C@@H]2N1C(=O)OCc1ccc(SSc2ccccn2)cc1` [Compound 20, MMC Benzyl Carbamate Disulfide], the “Optimum Dose” value (B16 melanoma) was 12.8 mg/kg/inj, the “Maximum Effect T/C” value (B16 melanoma) was 145 and the “Optimum Dose” value (P388 leukemia) was 25.6 mg/kg. The “Maximum Effect T/C” value (P388 leukemia) was 353.
For `COC1=C(C)C(=O)C2=C(C1=O)[C@@H](COC(N)=O)[C@@]1(OC)[C@H]3N[C@H]3CN21` [Compound 22, mitomycin A, reference compound], the “Optimum Dose” value (B16 melanoma) was 0.4 mg/kg/inj, the “Maximum Effect T/C” value (B16 melanoma) was 182 and the “Optimum Dose” value (P388 leukemia) was 3.2 mg/kg. The “Maximum Effect T/C” value (P388 leukemia) was 180.
With `COc1cccc2c1C(=O)c1c(O)c3c(c(O)c1C2=O)C[C@@](O)(C(C)=O)C[C@@H]3O[C@H]1C[C@H](N)[C@H](O)[C@H](C)O1` [Compound 28, daunomycin, reference compound] the “Optimum Dose” value (L1210 leukemia) was 3.2 mg/kg and the “Maximum Effect T/C” value (L1210 leukemia) was 154.
For `COc1cccc2c1C(=O)c1c(O)c3c(c(O)c1C2=O)C[C@@](O)(C(C)=O)C[C@@H]3O[C@H]1C[C@H](NC(=O)OCc2ccccc2)[C@H](O)[C@H](C)O1` [Compound 29, DAU Benzyl Carbamate], the “Optimum Dose” value (L1210 leukemia) was 9.0 mg/kg, the “in-vivo activity” value (L1210 leukemia) was “inactive” and the “Maximum Effect T/C” value (L1210 leukemia) was 100.
In the case of “Benzyl Carbamate Disulfide [Compound 12]”, the “stability in buffered aqueous methanol” value ([1]; aqueous methanol buffered between pH 6 to 8, no reducing agent) was “stable for several days” and the “release of p-nitroaniline upon treatment with dithiothreitol” value ([1]; dithiothreitol, uv/vis and HPLC) was “p-nitroaniline was released”.
For “DAU Benzyl Carbamate Disulfide [Compound 30]”, the “Optimum Dose” value (L1210 leukemia) was 3.0 mg/kg, the “in-vivo activity” value (L1210 leukemia) was “inactive” and the “Maximum Effect T/C” value (L1210 leukemia) was 100.
In the case of “MMA Benzyl Carbamate Disulfide [Compound 23]”, the “Optimum Dose” value (B16 melanoma) was 6.4 mg/kg/inj, the “Maximum Effect T/C” value (B16 melanoma) was 124 and the “antitumor activity” value (B16 melanoma) was “little activity”.
For “MMA Benzyl Carbamate Disulfide [Compound 25]”, the “Optimum Dose” value (B16 melanoma) was 3.2 mg/kg/inj, the “Maximum Effect T/C” value (B16 melanoma) was 191 and the “Optimum Dose” value (P388 leukemia) was 3.2 mg/kg. For the same compound, the “Maximum Effect T/C” value (P388 leukemia) was 153.
For “MMA Benzyl Carbamate Disulfide [Compound 26]”, the “Optimum Dose” value (B16 melanoma) was 3.2 mg/kg/inj, the “Maximum Effect T/C” value (B16 melanoma) was 182 and the “Optimum Dose” value (P388 leukemia) was 3.2 mg/kg. For the same compound, the “Maximum Effect T/C” value (P388 leukemia) was 163.
With “MMA Benzyl Carbamate Disulfide [Compound 27]” the “Optimum Dose” value (B16 melanoma) was 9.6 mg/kg/inj, the “Maximum Effect T/C” value (B16 melanoma) was 182 and the “Optimum Dose” value (P388 leukemia) was 12.8 mg/kg. The “Maximum Effect T/C” value (P388 leukemia) was 163.
For “MMC Benzyl Carbamate Disulfide [Compound 19]”, the “Optimum Dose” value (P388 leukemia) was 51.2 mg/kg and the “Maximum Effect T/C” value (P388 leukemia) was 185.
With “MMC Benzyl Carbamate Disulfide [Compound 21]” the “Optimum Dose” value (B16 melanoma) was 6.4 mg/kg/inj, the “Maximum Effect T/C” value (B16 melanoma) was 123 and the “Optimum Dose” value (P388 leukemia) was 12.8 mg/kg. The “Maximum Effect T/C” value (P388 leukemia) was 222.
With MMC Benzyl Carbamate [Compound 17] the “Optimum Dose” value (B16 melanoma) was 4.8 mg/kg/inj, the “Maximum Effect T/C” value (B16 melanoma) was 96 and the “antitumor activity” value (B16 melanoma) was “little activity”. For the same compound, the “Optimum Dose” value (P388 leukemia) was 12.8 mg/kg and the “Maximum Effect T/C” value (P388 leukemia) was 144.
In the case of “mitomycin C [Compound 16, reference compound]”, the “Optimum Dose” value (B16 melanoma) was 3.0 mg/kg/inj, the “Maximum Effect T/C” value (B16 melanoma) was 143 and the “Optimum Dose” value (P388 leukemia) was 3.2 mg/kg. For the same compound, the “Maximum Effect T/C” value (P388 leukemia) was 266.
